{"source": "paper PMC4318582", "about": "“Chemotherapy of Second Stage Human African Trypanosomiasis: Comparison between the Parenteral Diamidine DB829 and Its Oral Prodrug DB868 in Vervet Monkeys” (PLoS Neglected Tropical Diseases, 2015)", "key": {"[1]": {"tested_on": "human intestinal cell line (Caco-2)", "parameters": "method as in PMID 12458675, PMID 15294005", "details": "cited from earlier work"}, "T. b. rhodesiense": {"tested_on": "T. b. rhodesiense", "details": "oral prodrug; cited from earlier work"}, "[2]": {"tested_on": "T. b. rhodesiense KETRI 2537", "details": "cited from earlier work"}, "African trypanosomes": {"tested_on": "African trypanosomes", "parameters": "method as in PMID 18722336, PMID 19620327", "details": "oral administration; cited from earlier work"}, "[3]": {"parameters": "method as in earlier work", "details": "cited from earlier work"}, "[4]": {"assay": "Plasma pharmacokinetics in infected vervet monkeys (HPLC-MS/MS)", "type": "in vivo, vervet monkey", "details": "for geometric mean plasma concentration (range) of prodrug DB868: within 1 h post-LDD", "text": "(§1) Parasitaemia post-infection was monitored daily, using ear-prick capillary blood, through the completion of DB868 and DB829 treatment. Following the last drug dose (LDD), blood and CSF samples were examined for trypanosomes at 1, 4, 7, and 14 days to determine the end of treatment (EoT) response; monkeys which were positive for trypanosomes in either blood or CSF at the end of this 14-day period were classified as treatment failures/not cured while those that were free of trypanosomes were classified as provisionally cured. After the 14-day EoT evaluations, parasitaemia examinations were continued twice weekly to ≥ 300 days post-LDD as described previously. Additionally, physical examinations and haematological assessments were carried out once weekly up to 28 days post-LDD, once every two weeks between 28 and 100 days post-LDD, and monthly thereafter until the end of the study as described previously. At 300 days post-LDD, monkeys were considered cured if they remained normal clinically and parasite-free in the blood and CSF. Pharmacokinetic outcomes were monitored for a minimum of 60 days post-LDD as described previously. To facilitate the collection of blood and CSF for these assessments, the monkeys were anaesthetised with an IM injection of ketamine HCl (10–15 mg/kg) and diazepam (0.5 mg/kg). Monkeys that relapsed, characterized by trypanosome recrudescence in the blood or CSF, were rescue-treated with melarsoprol. Melarsoprol (Mel B), supplied by the World Health Organization as a 3.6% (w/v) solution in propylene glycol, was administered intravenously at 3.6 mg/kg/day for 4 consecutive days.\nPlasma samples were processed for quantification of DB868 and DB829 by high performance liquid chromatography-tandem mass spectrometry (HPLC-MS/MS) as described previously. CSF samples were processed in a manner similar to that of plasma samples.\nClinical and haematological data were analysed using Statview for Windows Version 5.0.1 (1995–1998; SAS Institute Inc., Cary, NC, USA). Repeated measures ANOVA, with Fisher’s PLSD post hoc test, was used to test the effect of trypanosome infection on haematologic parameters in comparison with respective baseline values (α = 0.05). In addition, the effects of IM DB829 and oral DB868 on these haematologic parameters in monkeys with confirmed second stage HAT were tested. Pharmacokinetic outcomes were recovered using traditional non-compartmental methods using Phoenix WinNonlin (version 6.2; Pharsight, Mountain View, CA, USA)."}, "[5]": {"tested_on": "T. b. rhodesiense KETRI 2537", "assay": "Efficacy in KETRI vervet monkey model of second stage HAT", "type": "in vivo", "text": "The current study used the KETRI vervet monkey model of HAT, a model developed over 30 years ago through the experimental infection of vervet monkeys with T. b. rhodesiense. […] Trypanosomes were identified in peripheral blood first and cerebrospinal fluid (CSF) second, allowing the disease to be classified into an early (haemo-lymphatic) and a late (central nervous system [CNS]) stage, similar to the human disease. […] Monkey trypanosomal infections have been determined to be invariably fatal without therapeutic intervention, a characteristic also widely accepted as true for human sleeping sickness.\nParasitaemia and CSF parasitosis were monitored using established techniques for blood trypanosomes and CSF trypanosomes, respectively.\nDue to a regulated freeze on acquisitions of new non-human primates, only six monkeys were available for the IM DB829 study. These animals were divided into three treatment groups, each consisting of one male and one female, to compare dose-responsiveness between consecutive- and alternate-day dosing. Monkeys were treated with 2.5 or 5 mg/kg/day for 5 consecutive days or with 5 mg/kg/day on alternating days for a total of 5 doses (Table 1).\nTwelve additional monkeys were available for the oral DB868 efficacy study. These animals were, before infection, divided into three groups, each consisting of two males and two females. DB868 was administered orally to each group at 3, 10 or 20 mg/kg/day for 10 consecutive days (Table 2).\nParasitaemia post-infection was monitored daily, using ear-prick capillary blood, through the completion of DB868 and DB829 treatment. […] At 300 days post-LDD, monkeys were considered cured if they remained normal clinically and parasite-free in the blood and CSF. Pharmacokinetic outcomes were monitored for a minimum of 60 days post-LDD as described previously. […] Monkeys that relapsed, characterized by trypanosome recrudescence in the blood or CSF, were rescue-treated with melarsoprol."}, "T. b. brucei GVR35": {"tested_on": "T. b. brucei GVR35", "parameters": "method as in PMID 19620327", "details": "cited from earlier work"}, "[6]": {"assay": "Tolerability of dose regimens in infected vervet monkeys", "type": "in vivo, vervet monkey", "details": "all IM DB829 and oral DB868 dose regimens", "text": "as §1, with “Monkeys that relapsed, characterized by trypanosome recrudescence in the blood or CSF, were rescue-treated with melarsoprol. Melarsoprol (Mel B), supplied by the World Health Organization as a 3.6% (w/v) solution in propylene glycol, was administered intravenously at 3.6 mg/kg/day for 4 consecutive days.” left out"}, "[7]": {"details": "all oral DB868 regimens combined"}, "[8]": {"details": "oral 10 mg/kg × 10 days, monkeys 688M, 690F, 695M, 697F, 10 mg/kg"}, "[9]": {"details": "oral 20 mg/kg × 10 days, monkeys 573F, 679F, 689M, 696M, 20 mg/kg"}}, "note": "Values joined by “and” are separate entries in the source; they are usually repeats but may differ in a detail not shown here. Identical values can stand only once. “Also recorded” adds a separate entry of the source. Like-named read-outs stand apart in the source and are kept apart here."}
{"smiles": "CONC(=N)c1ccc(-c2ccc(-c3ccc(C(=N)NOC)cc3)o2)cc1", "note": "[pafuramidine, 2,5-bis (4-amidinophenyl)-furan-bis-O-methlylamidoxime]", "values": [{"measurement": "absorptive permeability compared with the active diamidine furamidine (DB75)", "setting": "[1]", "value": "improved absorptive permeability"}, {"measurement": "cure rate against second stage HAT in non-human primates", "setting": "T. b. rhodesiense", "value": "0/3"}, {"measurement": "efficacy against first stage HAT in monkeys", "setting": "[2]; oral administration", "value": "fully curative"}, {"measurement": "efficacy in murine models of first and second stage HAT", "setting": "African trypanosomes", "value": "fully curative"}]}
{"smiles": "CONC(=N)c1ccc(-c2ccc(-c3ccc(C(=N)NOC)cn3)o2)nc1", "note": "[DB868, 2,5-bis[5-(N-methoxyamidino)-2-pyridyl]furan]", "values": [{"measurement": "tolerability in rats", "setting": "[3]", "value": "better tolerated than pafuramidine"}, {"measurement": "decline of prodrug DB868 plasma concentrations", "setting": "[4]; oral DB868, all monkeys, post-LDD", "value": "undetectable after 8 h"}, {"measurement": "geometric mean plasma concentration (range) of prodrug DB868", "setting": "[4]; oral DB868 3 mg/kg/day", "value": "120 (100–150) nmol/L"}, {"measurement": "geometric mean plasma concentration (range) of prodrug DB868", "setting": "[4]; oral DB868 10 mg/kg/day", "value": "750 (420–1500) nmol/L"}, {"measurement": "geometric mean plasma concentration (range) of prodrug DB868", "setting": "[4]; oral DB868 20 mg/kg/day", "value": "810 (370–1300) nmol/L"}, {"measurement": "Final efficacy assessment at 300 days post-LDD of DB868, Overall Results (combined cure rate)", "setting": "[5]; [7]", "value": "2/10"}, {"measurement": "Provisional efficacy at 100 days post-LDD of DB868, Overall Results", "setting": "[5]; [7]", "value": "4/10"}, {"measurement": "Provisional efficacy at EoT, Overall Results", "setting": "[5]; [7]", "value": "8/10"}, {"measurement": "Time to relapse", "setting": "[5]; oral 3 mg/kg × 10 days, 28–37 DPI, monkey 687M", "value": 14, "unit": "days post-LDD"}, {"measurement": "Cured/treated", "setting": "[5]; oral 3 mg/kg × 10 days, 3 mg/kg", "value": "did not cure any monkey and did not achieve cure in any monkey and 0/2"}, {"measurement": "Provisional efficacy at EoT", "setting": "[5]; oral 3 mg/kg × 10 days, monkeys 670F, 687M", "value": "Not cured"}, {"measurement": "drug dose after which brief period of aparasitaemia started", "setting": "[5]; oral 3 mg/kg/day × 10 days, 34 DPI", "value": 7, "unit": "drug dose"}, {"measurement": "Cured/treated", "setting": "[5]; oral 10 mg/kg × 10 days", "value": "1/4"}, {"measurement": "Time to initial clearance of trypanosomes from body fluids (blood and CSF)", "setting": "[5]; oral 10 mg/kg × 10 days, 28–37 DPI", "value": 1, "unit": "days post-LDD"}, {"measurement": "Time to relapse", "setting": "[5]; oral 10 mg/kg × 10 days, 28–37 DPI, individual monkeys, 10 mg/kg", "value": "56 days post-LDD and 28 days post-LDD"}, {"measurement": "Provisional efficacy at EoT", "setting": "[5]; oral 10 mg/kg × 10 days, monkeys 688M, 690F, 695M, 697F", "value": "Cured"}, {"measurement": "Final efficacy assessment at 300 days post-LDD of DB868", "setting": "[5]; [8]", "value": "R and Cured"}, {"measurement": "Provisional efficacy at 100 days post-LDD of DB868", "setting": "[5]; [8]", "value": "R and Cured"}, {"measurement": "median (range) time to relapse", "setting": "[5]; oral 10 mg/kg/day × 10 days", "value": "28 (28–56) days post-LDD"}, {"measurement": "monkeys relapsed", "setting": "[5]; oral 10 mg/kg/day × 10 days", "value": "3/4"}, {"measurement": "day of dosing by which monkeys became blood parasite negative", "setting": "[5]; oral 10 mg/kg/day × 10 days, 34 DPI", "value": "≤ 7 day of dosing"}, {"measurement": "Cured/treated", "setting": "[5]; oral 20 mg/kg × 10 days", "value": "1/4"}, {"measurement": "Time to relapse", "setting": "[5]; oral 20 mg/kg × 10 days, 28–37 DPI, individual monkeys, 20 mg/kg", "value": "161 days post-LDD and 133 days post-LDD and 77 days post-LDD"}, {"measurement": "Provisional efficacy at EoT", "setting": "[5]; oral 20 mg/kg × 10 days, monkeys 573F, 679F, 689M, 696M", "value": "Cured"}, {"measurement": "Final efficacy assessment at 300 days post-LDD of DB868", "setting": "[5]; [9]", "value": "R and Cured"}, {"measurement": "Provisional efficacy at 100 days post-LDD of DB868", "setting": "[5]; [9]", "value": "R and Cured"}, {"measurement": "monkeys relapsed", "setting": "[5]; oral 20 mg/kg/day × 10 days", "value": "3/4"}, {"measurement": "median (range) time to relapse", "setting": "[5]; oral 20 mg/kg/day × 10 days, 20 mg/kg/day", "value": "133 (77–161) days post-LDD and 133 days post-LDD"}, {"measurement": "day of treatment by which monkeys became aparasitaemic (blood)", "setting": "[5]; oral 20 mg/kg/day × 10 days, 34 DPI", "value": "≤ 7 day of treatment"}, {"measurement": "efficacy against first stage HAT in monkeys", "setting": "[2]; oral", "value": "highly active; also recorded: fully curative"}, {"measurement": "tolerability in monkeys, first stage HAT study", "setting": "[2]; oral", "value": "well-tolerated"}, {"measurement": "efficacy in the murine model of second stage HAT", "setting": "T. b. brucei GVR35", "value": "fully curative"}, {"measurement": "tolerability of dose regimens", "setting": "[6]", "value": "well tolerated"}]}
{"smiles": "N=C(N)c1ccc(OCCCCCOc2ccc(C(=N)N)cc2)cc1", "note": "[pentamidine, reference compound]", "values": [{"measurement": "cure rate when treatment initiation was delayed to 14 days post-infection", "setting": "[2]; IM, monkeys, T. b. rhodesiense KETRI 2537, ref unpublished data, TRC-KARI", "value": "0/3"}, {"measurement": "cure rate in first stage disease", "setting": "[2]; IM, monkeys", "value": "2/3"}]}
{"smiles": "CON=C(N)c1ccc(-c2ccc(-c3ccc(C(N)=NOC)cn3)o2)cc1", "note": "[DB844]", "values": [{"measurement": "cure rate against second stage HAT in non-human primates", "setting": "T. b. rhodesiense", "value": "3/7"}, {"measurement": "efficacy in murine models of first and second stage HAT", "setting": "African trypanosomes", "value": "fully curative"}]}
{"smiles": "Nc1nc(N)nc(Nc2ccc([As]3SCC(CO)S3)cc2)n1", "note": "(stereo not drawn) [melarsoprol, reference compound]", "values": [{"measurement": "rescue treatment of monkeys that relapsed after DB868", "setting": "[5]; melarsoprol intravenously 3.6 mg/kg/day for 4 consecutive days, 3.6 mg/kg/day", "value": "successfully rescue-treated and 5/6"}]}
